Source: ChEMBL document CHEMBL6120979, “Cell penetrable peptide nucleic acids targeting PDZK1IP1 with anti-inflammatory potential in human keratinocytes” (Bioorg Med Chem Lett, 2025)
Active and inactive are the calls of the source. The rule behind the calls is not given here.

Experiments:
[1] = tested on: Keratinocyte; assay: Antiinflammatory activity in human keratinocytes assessed as downregulation of PTGS2 gene expression preincubated with compound for 24 hrs followed by IFN-gamma addition and measured after 24 hrs by RT-qPCR analysis; type: functional, cell-based; details: dose 0.01-1 µM, time 48.0 hrs
[2] = tested on: Keratinocyte; assay: Antiinflammatory activity in human keratinocytes assessed as downregulation of IL6 gene expression preincubated with compound for 24 hrs followed by IFN-gamma addition and measured after 24 hrs by RT-qPCR analysis; type: functional, cell-based; details: dose 0.01-1 µM, time 48.0 hrs
[3] = tested on: RNA; assay: Binding affinity to complementary RNA (unknown origin) in sodium phosphate buffer assessed as melting temperature of PNA-RNA duplex; type: nucleic-acid assay
[4] = tested on: Keratinocyte; assay: Inhibition of PDZK1IP1 mRNA expression in human keratinocytes incubated for 24 hrs by RT-qPCR analysis; type: functional, cell-based
[5] = tested on: RNA; assay: Binding affinity to complementary RNA (unknown origin) with mismatch bases in sodium phosphate buffer; type: nucleic-acid assay
[6] = tested on: Keratinocyte; assay: Inhibition of PDZK1IP1 mRNA expression in human keratinocytes at 1 uM incubated for 24 hrs by RT-qPCR analysis; type: functional, cell-based
[7] = tested on: Keratinocyte; assay: Antiinflammatory activity in human keratinocytes assessed as downregulation of PDZK1IP1 gene expression preincubated with compound for 24 hrs followed by IFN-gamma addition and measured after 24 hrs by RT-qPCR analysis; type: functional, cell-based; details: dose 0.01-1 µM, time 48.0 hrs
[8] = tested on: Keratinocyte; assay: Inhibition of PDZK1IP1 mRNA expression in human keratinocytes at 0.01 to 1 uM incubated for 24 hrs by RT-qPCR analysis; type: functional, cell-based; details: dose 0.01-1 µM
[9] = tested on: Keratinocyte; assay: Antiinflammatory activity in human keratinocytes assessed as downregulation of PDZK1IP1 gene expression at 1 uM preincubated with compound for 24 hrs followed by IFN-gamma addition and measured after 24 hrs by RT-qPCR analysis; type: functional, cell-based; details: time 48.0 hrs
[10] = tested on: Keratinocyte; assay: Antiinflammatory activity in human keratinocytes assessed as downregulation of IL6 gene expression at 1 uM preincubated with compound for 24 hrs followed by IFN-gamma addition and measured after 24 hrs by RT-qPCR analysis; type: functional, cell-based; details: time 48.0 hrs
[11] = tested on: Keratinocyte; assay: Antiinflammatory activity in human keratinocytes assessed as downregulation of PTGS2 gene expression at 1 uM preincubated with compound for 24 hrs followed by IFN-gamma addition and measured after 24 hrs by RT-qPCR analysis; type: functional, cell-based; details: time 48.0 hrs

Structure (SMILES) | Activity [1] | Activity [2] | Tm [3] [°C] | inhibition [4] | Activity [5] | inhibition [6] | Activity [7] | inhibition [8] | Activity [9] | Activity [10] | Activity [11]
Cc1cn(CC(=O)N(CCN)CC(=O)NCCN(CC(=O)NCCN(CC(=O)NCCN(CC(=O)NCCN(CC(=O)NCCN(CC(=O)NCCN(CC(=O)NCCN(CC(=O)NCCN(CC(=O)NCCN(CC(=O)NCCN(CC(=O)NCCN(CC(=O)NCCN(CC(=O)NCCN(CC(=O)O)C(=O)Cn2cnc3c(=O)[nH]c(N)nc32)C(=O)Cn2cnc3c(=O)[nH]c(NCCCCCCN)nc32)C(=O)Cn2cc(C)c(=O)[nH]c2=O)C(=O)Cn2ccc(N)nc2=O)C(=O)Cn2ccc(N)nc2=O)C(=O)Cn2cc3cc(COCCN)[nH]c3nc2=O)C(=O)Cn2cc(C)c(=O)[nH]c2=O)C(=O)Cn2ccc(N)nc2=O)C(=O)Cn2cnc3c(=O)[nH]c(NCCCCCCN)nc32)C(=O)Cn2cnc3c(=O)[nH]c(N)nc32)C(=O)Cn2cnc3c(N)nc(NCCCCCN)nc32)C(=O)Cn2ccc(N)nc2=O)C(=O)Cn2cnc3c(=O)[nH]c(NCCCCCCN)nc32)c(=O)[nH]c1=O | Dose-dependent-effect | Dose-dependent-effect | 80 | Dose-dependent-effect | inactive | Active | Dose-dependent-effect |  |  |  | 
Cc1cn(CC(=O)N(CCNC(=O)CN(CCNC(=O)CN(CCNC(=O)CN(CCNC(=O)CN(CCNC(=O)CN(CCNC(=O)CN(CCN)C(=O)Cn2cnc3c(=O)[nH]c(N)nc32)C(=O)Cn2cnc3c(=O)[nH]c(NCCCCCCN)nc32)C(=O)Cn2ccc(N)nc2=O)C(=O)Cn2cc(C)c(=O)[nH]c2=O)C(=O)Cn2cc3cc(COCCN)[nH]c3nc2=O)C(=O)Cn2ccc(N)nc2=O)CC(=O)NCCN(CC(=O)NCCN(CC(=O)NCCN(CC(=O)NCCN(CC(=O)NCCN(CC(=O)NCCN(CC(=O)NCCN(CC(=O)O)C(=O)Cn2cnc3c(N)nc(NCCCCCN)nc32)C(=O)Cn2ccc(N)nc2=O)C(=O)Cn2cnc3c(=O)[nH]c(N)nc32)C(=O)Cn2cnc3c(=O)[nH]c(NCCCCCCN)nc32)C(=O)Cn2cc(C)c(=O)[nH]c2=O)C(=O)Cn2cc3cc(COCCN)[nH]c3nc2=O)C(=O)Cn2ccc(N)nc2=O)c(=O)[nH]c1=O |  |  | 84 |  | inactive | Active |  | Mild_effect; Mild Dose Dependent Effect Observed |  |  | 
Cc1cn(CC(=O)N(CCNC(=O)CN(CCNC(=O)CN(CCNC(=O)CN(CCNC(=O)CN(CCNC(=O)CN(CCNC(=O)CN(CCNC(=O)CN(CCNC(=O)CN(CCNC(=O)CN(CCNC(=O)CN(CCNC(=O)CN(CCNC(=O)CN(CCNC(=O)CN(CCN)C(=O)Cn2cc(C)c(=O)[nH]c2=O)C(=O)Cn2cnc3c(=O)[nH]c(NCCCCCCN)nc32)C(=O)Cn2cc(C)c(=O)[nH]c2=O)C(=O)Cn2cnc3c(=O)[nH]c(NCCCCCCN)nc32)C(=O)Cn2ccc(N)nc2=O)C(=O)Cn2cnc3c(N)nc(NCCCCCN)nc32)C(=O)Cn2cnc3c(=O)[nH]c(N)nc32)C(=O)Cn2cnc3c(=O)[nH]c(NCCCCCCN)nc32)C(=O)Cn2ccc(N)nc2=O)C(=O)Cn2cc(C)c(=O)[nH]c2=O)C(=O)Cn2ccc(N)nc2=O)C(=O)Cn2cc3cc(COCCN)[nH]c3nc2=O)C(=O)Cn2ccc(N)nc2=O)CC(=O)O)c(=O)[nH]c1=O |  |  | 75 |  | inactive | Active |  | Mild_effect; Mild Dose Dependent Effect Observed |  |  | 
Cc1cn(CC(=O)N(CCN)CC(=O)NCCN(CC(=O)NCCN(CC(=O)NCCN(CC(=O)NCCN(CC(=O)NCCN(CC(=O)NCCN(CC(=O)NCCN(CC(=O)NCCN(CC(=O)NCCN(CC(=O)NCCN(CC(=O)NCCN(CC(=O)NCCN(CC(=O)NCCN(CC(=O)NCCN(CC(=O)NCCN(CC(=O)NCCN(CC(=O)NCCN(CC(=O)NCCN(CC(=O)NCCN(CC(N)=O)C(=O)Cn2cnc3c(=O)[nH]c(N)nc32)C(=O)Cn2ccc(N)nc2=O)C(=O)Cn2cnc3c(N)nc(NCCCCCN)nc32)C(=O)Cn2cc(C)c(=O)[nH]c2=O)C(=O)Cn2ccc(N)nc2=O)C(=O)Cn2cnc3c(N)ncnc32)C(=O)Cn2cnc3c(=O)[nH]c(N)nc32)C(=O)Cn2cnc3c(N)ncnc32)C(=O)Cn2ccc(N)nc2=O)C(=O)Cn2cnc3c(N)nc(N)nc32)C(=O)Cn2cnc3c(N)nc(NCCCCCN)nc32)C(=O)Cn2ccc(N)nc2=O)C(=O)Cn2cc(C)c(=O)[nH]c2=O)C(=O)Cn2cc(C)c(=O)[nH]c2=O)C(=O)Cn2ccc(N)nc2=O)C(=O)Cn2cnc3c(N)nc(NCCCCCN)nc32)C(=O)Cn2ccc(N)nc2=O)C(=O)Cn2cc(C)c(=O)[nH]c2=O)C(=O)Cn2cc3cc(COCCN)[nH]c3nc2=O)c(=O)[nH]c1=O |  |  |  |  |  | inactive |  |  | inactive | inactive | inactive
Cc1cn(CC(=O)N(CCNC(=O)CN(CCNC(=O)CN(CCNC(=O)CN(CCNC(=O)CN(CCNC(=O)CN(CCNC(=O)CN(CCNC(=O)CN(CCNC(=O)CN(CCNC(=O)CN(CCNC(=O)CN(CCNC(=O)CN(CCNC(=O)CN(CCN)C(=O)Cn2cnc3c(N)nc(NCCCCCN)nc32)C(=O)Cn2ccc(N)nc2=O)C(=O)Cn2cc(C)c(=O)[nH]c2=O)C(=O)Cn2ccc(N)nc2=O)C(=O)Cn2cnc3c(N)nc(NCCCCCN)nc32)C(=O)Cn2ccc(N)nc2=O)C(=O)Cn2cnc3c(=O)[nH]c(NCCCCCCN)nc32)C(=O)Cn2cnc3c(=O)[nH]c(N)nc32)C(=O)Cn2cc3cc(COCCN)[nH]c3nc2=O)C(=O)Cn2cc(C)c(=O)[nH]c2=O)C(=O)Cn2ccc(N)nc2=O)C(=O)Cn2cc3cc(COCCN)[nH]c3nc2=O)CC(=O)NCCN(CC(=O)O)C(=O)Cn2ccc(N)nc2=O)c(=O)[nH]c1=O |  |  | 74.1 |  | inactive | Active |  | Mild_effect; Mild Dose Dependent Effect Observed |  |  | 
Cc1cn(CC(=O)N(CCNC(=O)CN(CCNC(=O)CN(CCNC(=O)CN(CCNC(=O)CN(CCNC(=O)CN(CCNC(=O)CN(CCNC(=O)CN(CCNC(=O)CN(CCN)C(=O)Cn2cnc3c(N)nc(NCCCCCN)nc32)C(=O)Cn2ccc(N)nc2=O)C(=O)Cn2cnc3c(=O)[nH]c(N)nc32)C(=O)Cn2cnc3c(=O)[nH]c(N)nc32)C(=O)Cn2ccc(N)nc2=O)C(=O)Cn2cc(C)c(=O)[nH]c2=O)C(=O)Cn2cc3cc(COCCN)[nH]c3nc2=O)C(=O)Cn2ccc(N)nc2=O)CC(=O)NCCN(CC(=O)NCCN(CC(=O)NCCN(CC(=O)NCCN(CC(=O)NCCN(CC(=O)NCCN(CC(=O)NCCN(CC(=O)NCCN(CC(=O)NCCN(CC(=O)NCCN(CC(=O)NCCN(CC(=O)O)C(=O)Cn2cnc3c(=O)[nH]c(N)nc32)C(=O)Cn2cnc3c(N)nc(NCCCCCN)nc32)C(=O)Cn2ccc(N)nc2=O)C(=O)Cn2ccc(N)nc2=O)C(=O)Cn2cnc3c(N)nc(NCCCCCN)nc32)C(=O)Cn2ccc(N)nc2=O)C(=O)Cn2cnc3c(=O)[nH]c(N)nc32)C(=O)Cn2cnc3c(=O)[nH]c(NCCCCCCN)nc32)C(=O)Cn2cc(C)c(=O)[nH]c2=O)C(=O)Cn2ccc(N)nc2=O)C(=O)Cn2ccc(N)nc2=O)c(=O)[nH]c1=O |  |  | > 90 | Dose-dependent-effect | inactive |  |  |  |  |  | 
